In patent US8883801B2, “Substituted pyrazolo[1,5-a]pyrimidines as mTOR inhibitors” (Merck Sharp & Dohme Corp., priority 2010, dated 2014) one finds IC50 data, which are given here for 15 compounds.

For one experiment, the target named is human mTOR enzyme (Homo sapiens, UniProt P42345). In words: HTRF mTOR enzyme (kinase) assay. It is filed as biochemical. To be noted: rated class; 5 μM ATP, 0.2 μM GST-S6K; read-out: hMTOR IC50.
The subject of experiment [1] is mTORC2 activity: phosphorylated AKT Ser473 (pAKT S473) in PC3 cells. In words: mTOR target engagement assay, immunofluorescent cell-based, mTORC2 readout. Conditions: Homo sapiens, PC-3, 1.5 h, rated class, 90 min treatment. An outline of the steps: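 Read-out is immunofluorescence intensity, normalized to DMSO-only wells and fitted to a sigmoidal Hill equation for IC50. The mTORC1 arm probes phospho-4E-BP1 Thr37/46 and the mTORC2 arm phospho-AKT Ser473.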

For experiment [2], the system named is mTORC1 activity: phosphorylated 4E-BP1 Thr37/46 (p4E-BP1 Thr37/46) in PC3 cells. In words: mTOR target engagement assay, immunofluorescent cell-based, mTORC1 readout. Conditions: Homo sapiens, PC-3, 1.5 h, rated class, 90 min treatment, read-out: P4EBP1 IC50. As to the method:
The target engagement of mTOR kinase inhibitors was evaluated using an immunofluorescent cell-based assay. In this assay, inhibition of mTORC1 activity was measured by the reduction in the level of phosphorylated 4E-BP1Thr37/46 (p4E-BP1 Thr37/46), and inhibition of mTORC2 activity was measured by the reduction of phosphorylated AKTSer473 (pAKT S473).
PC3 cells (prostate tumor cell-line that contains a mutation in the tumor suppressor PTEN, that promotes the phosphorylation and activation of AKT and 4E-BP1) were used in the immunofluorescence assay. PC3 cells were seeded on 384 well plates (black clear bottom, Matrix #4332) overnight. PC3 cells were then treated with 40 μl of the serially diluted test compounds (in 5% fetal bovine serum, F12 medium containing 0.25% DMSO) for ninety minutes at 37° C. The test compound solution was removed, and the plates were washed gently two times with 25 μl phosphate buffered saline (PBS). The cells were fixed by adding 25 μl of Prefer reagent (from Anatech LTD, Cat#414, a glyoxal fixative for fixing proteins within a cell) for sixty minutes followed by three washes with PBS. 5% Goat serum in PBS/0.3% Triton was used to block non-specific binding (60 minutes).
The primary antibodies targeting pAKT S473 and p4E-BP1 Thr37/46 were diluted into PBS/0.3% Triton and incubated with the cells overnight at 4° C. The antibodies targeting pAKTS473 (Cat#4085, Cell signaling) and p4E-BP1 Thr37/46 (Cat#2855, Cell signaling) were used at a 1:100 dilution. Plates were washed three times with PBS/0.1% Tween 20 before adding the secondary antibody at a 1:200 dilution. (goat anti-rabbit containing a fluorescent label, Alexa Fluor 488, Cat#A11008, Invitrogen) in PBS/0.3% Triton for 60 minutes.
Finally, the plates were washed three times with PBS/0.1% Tween 20 and the fluorescent intensity was read using an Analyst HT from Molecular Devices. The fluorescent intensity values from the serially diluted compound treatment group were analyzed using the Xlfit 4 program ([…]) (Formula 205: Y=Bottom+(Top-Bottom)/(1+(IC50/X)^Hillslope) to generate the IC50 value. Where Top is the maximum signal without Compound (+DMSO only) and Bottom represents maximum inhibition. Y is the fluorescence at some compound concentration. The control used to determine the fluorescent intensities for 100% pAKT S473 or 100% phosphorylated p4E-BP1 Thr37/46 were measured from untreated wells that contained only DMSO, instead of test compound.

Sequence of human mTOR enzyme (P42345 1360-2549 limits assumed): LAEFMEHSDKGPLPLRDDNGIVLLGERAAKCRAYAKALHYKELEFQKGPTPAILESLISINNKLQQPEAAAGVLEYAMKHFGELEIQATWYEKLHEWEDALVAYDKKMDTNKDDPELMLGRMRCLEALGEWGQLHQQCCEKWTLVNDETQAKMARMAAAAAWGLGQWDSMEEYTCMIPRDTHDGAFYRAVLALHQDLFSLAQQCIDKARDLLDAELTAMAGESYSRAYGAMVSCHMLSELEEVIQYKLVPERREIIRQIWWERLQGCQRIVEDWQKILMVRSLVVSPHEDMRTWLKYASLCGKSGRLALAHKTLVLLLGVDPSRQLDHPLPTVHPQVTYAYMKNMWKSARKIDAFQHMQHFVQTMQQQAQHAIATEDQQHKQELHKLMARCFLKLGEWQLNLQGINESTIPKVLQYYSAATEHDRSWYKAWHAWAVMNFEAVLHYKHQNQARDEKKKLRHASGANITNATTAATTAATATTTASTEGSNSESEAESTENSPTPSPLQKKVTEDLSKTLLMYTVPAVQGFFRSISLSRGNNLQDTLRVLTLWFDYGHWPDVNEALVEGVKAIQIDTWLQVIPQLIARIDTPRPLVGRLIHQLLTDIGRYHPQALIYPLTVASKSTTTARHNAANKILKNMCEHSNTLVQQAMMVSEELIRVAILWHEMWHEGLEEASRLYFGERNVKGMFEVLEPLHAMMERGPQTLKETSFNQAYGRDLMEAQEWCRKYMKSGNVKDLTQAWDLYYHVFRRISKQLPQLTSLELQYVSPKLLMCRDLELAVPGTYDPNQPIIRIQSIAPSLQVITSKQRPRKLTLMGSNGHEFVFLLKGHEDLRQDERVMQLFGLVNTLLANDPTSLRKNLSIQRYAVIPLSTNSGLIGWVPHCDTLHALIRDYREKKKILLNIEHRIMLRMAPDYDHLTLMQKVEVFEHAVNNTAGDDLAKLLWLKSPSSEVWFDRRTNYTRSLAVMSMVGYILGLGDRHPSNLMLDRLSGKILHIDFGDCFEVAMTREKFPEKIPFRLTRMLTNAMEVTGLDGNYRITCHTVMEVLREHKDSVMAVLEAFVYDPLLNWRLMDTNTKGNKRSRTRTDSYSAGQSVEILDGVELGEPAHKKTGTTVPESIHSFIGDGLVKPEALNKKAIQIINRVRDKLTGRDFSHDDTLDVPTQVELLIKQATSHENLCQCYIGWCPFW

On to `COCCO[C@]1(C(=O)O)CC[C@@H](c2nc3c(-c4ccc(-c5ccc(O)c(F)c5)nc4)cnn3c(N)c2S(C)(=O)=O)CC1` [Compound 48, (1R,4R)-4-(7-amino-3-(6-(3-fluoro-4-hydroxyphenyl)pyridin-3-yl)-6-(methylsulfonyl)-pyrazolo[1,5-a]-pyrimidin-5-yl)-1-(2-methoxyethoxy)-cyclohexanecarboxylic acid], for which the values for the IC50 (on human mTOR enzyme; in experiment [1]; in experiment [2]) were 1 to 100 nM, 5000 to 15000 nM and 5000 to 15000 nM, respectively.

For `COCCO[C@]1(C(=O)O)CC[C@@H](c2nc3c(-c4ccc(-c5ccccn5)nc4)cnn3c(N)c2S(C)(=O)=O)CC1` [Compound 50, (1R,4R)-4-(3-(2,2′-bipyridin-5-yl)-7-amino-6-(methylsulfonyl)-pyrazolo[1,5-a]-pyrimidin-5-yl)-1-(2-methoxyethoxy)-cyclohexanecarboxylic acid], the values for the IC50 (on human mTOR enzyme; in experiment [1]; in experiment [2]) were 1 to 100 nM, 100 to 1000 nM and 100 to 1000 nM, respectively.

With `COCCO[C@]1(C(=O)O)CC[C@@H](c2nc3c(-c4cnc(-c5ncc(C)s5)nc4)cnn3c(N)c2S(C)(=O)=O)CC1` [Compound 51, (1R,4R)-4-(7-amino-6-(methylsulfonyl)-3-(2-(5-methylthiazol-2-yl)pyrimidin-5-yl)pyrazolo[1,5-a]pyrimidin-5-yl)-1-(2-methoxyethoxy) cyclohexanecarboxylic acid], the figures for the concentration for half-maximal inhibition (IC50) (at human mTOR enzyme; in experiment [1]; in experiment [2]) were 1 to 100 nM, 100 to 1000 nM and 1000 to 2000 nM, respectively.

For `COCCO[C@]1(C(=O)O)CC[C@@H](c2nc3c(-c4cnc5ccc(F)cc5c4)cnn3c(N)c2S(C)(=O)=O)CC1` [Compound 52, (1R,4R)-4-(7-amino-3-(6-fluoroquinolin-3-yl)-6-(methylsulfonyl)-pyrazolo[1,5-a]-pyrimidin-5-yl)-1-(2-methoxyethoxy)-cyclohexanecarboxylic acid], the IC50 on human mTOR enzyme lay within 1 to 100 nM; in experiment [1], 100 to 1000 nM; in experiment [2] it was 100 to 1000 nM.

For the compound `COCCO[C@]1(C(=O)O)CC[C@@H](c2nc3c(-c4ccc(-c5ccccc5)nc4)cnn3c(N)c2Br)CC1` [Compound 64, (1R,4R)-4-(7-amino-6-bromo-3-(6-phenylpyridin-3-yl)pyrazolo[1,5-a]pyrimidin-5-yl)-1-(2-methoxyethoxy)cyclohexanecarboxylic acid], the 50% inhibitory concentration (IC50) on human mTOR enzyme is 1 to 100 nM; in experiment [1], 100 to 1000 nM; in experiment [2], 100 to 1000 nM.

On to `Nc1c(Br)c([C@H]2CC[C@@](OCCN3CCOCC3)(C(=O)O)CC2)nc2c(-c3cnn(-c4ccccc4)c3)cnn12` [Compound 67, (1R,4R)-4-(7-amino-6-bromo-3-(1-phenyl-1H-pyrazol-4-yl)pyrazolo[1,5-a]pyrimidin-5-yl)-1-(2-morpholinoethoxy) cyclohexanecarboxylic acid], for which the IC50 is 1 to 100 nM on human mTOR enzyme, 100 to 1000 nM in experiment [1] and 100 to 1000 nM in experiment [2].

On to `COCCO[C@]1(C(=O)O)CC[C@@H](c2nc3c(-c4ccc(-c5ccc(OC)c(F)c5)nc4)cnn3c(N)c2Br)CC1` [Compound 68, (1R,4R)-4-(7-amino-6-bromo-3-(6-(3-fluoro-4-methoxyphenyl)-pyridin-3-yl)-pyrazolo[1,5-a]pyrimidin-5-yl)-1-(2-methoxyethoxy) cyclohexanecarboxylic acid], for which the IC50 at human mTOR enzyme fell in the range of 1 to 100 nM; in experiment [1] it was 2000 to 5000 nM; in experiment [2], 2000 to 5000 nM.

Regarding `COCCO[C@]1(C(=O)O)CC[C@@H](c2nc3c(-c4cnn(-c5ccccc5)c4)cnn3c(N)c2C#N)CC1` [Compound 69, (1R,4R)-4-(7-amino-6-cyano-3-(1-phenyl-1H-pyrazol-4-yl)pyrazolo[1,5-a]pyrimidin-5-yl)-1-(2-methoxyethoxy)cyclohexanecarboxylic acid], the IC50 (on human mTOR enzyme; in experiment [1]; in experiment [2]) was 1 to 100 nM in each case.

On to `COCCO[C@]1(C(=O)NS(C)(=O)=O)CC[C@@H](c2nc3c(-c4cnn(-c5ccccc5)c4)cnn3c(N)c2C(C)=O)CC1` [Compound 70, (1R,4R)-4-(6-acetyl-7-amino-3-(1-phenyl-1H-pyrazol-4-yl)pyrazolo[1,5-a]pyrimidin-5-yl)-1-(2-methoxyethoxy)-N-(methylsulfonyl)cyclohexanecarboxamide], for which the figures for the IC50 (on human mTOR enzyme; in experiment [1]; in experiment [2]) were 1 to 100 nM, 100 to 1000 nM and 100 to 1000 nM, respectively.

On to `COCCOC1(C(=O)NS(C)(=O)=O)CCC(c2nc3c(-c4cnn(-c5ccccc5)c4)cnn3c(N)c2S(C)(=O)=O)CC1` (stereo not drawn) [Compound 71, 4-(7-amino-6-(methylsulfonyl)-3-(1-phenyl-1H-pyrazol-4-yl)pyrazolo[1,5-a]pyrimidin-5-yl)-1-(2-methoxyethoxy)-N-(methylsulfonyl)cyclohexanecarboxamide], for which the values for the IC50 (at human mTOR enzyme; in experiment [1]; in experiment [2]) were 1 to 100 nM, 1000 to 2000 nM and 1000 to 2000 nM, respectively.

In the case of `Nc1c(Br)c([C@H]2CC[C@@](O)(CC(=O)O)CC2)nc2c(-c3ccc(-c4ccccc4)nc3)cnn12` [Compound 76, 2-((1R,4R)-4-(7-amino-6-bromo-3-(6-phenylpyridin-3-yl)pyrazolo[1,5-a]pyrimidin-5-yl)-1-hydroxycyclohexyl)acetic acid], the IC50 on human mTOR enzyme is 1 to 100 nM; in experiment [1], 100 to 1000 nM; in experiment [2] it was 100 to 1000 nM.

For `Nc1c(Br)c([C@H]2CC[C@](O)(CC(=O)O)CC2)nc2c(-c3cnn(-c4ccccc4)c3)cnn12` [Compound 78, 2-((1S,4S)-4-(7-amino-6-bromo-3-(1-phenyl-1H-pyrazol-4-yl)pyrazolo[1,5-a]pyrimidin-5-yl)-1-hydroxycyclohexyl)-acetic acid], the IC50 on human mTOR enzyme was 1 to 100 nM; in experiment [1], 100 to 1000 nM; in experiment [2] it was 100 to 1000 nM.

On to `COCCO[C@]1(C(=O)NO)CC[C@@H](c2nc3c(-c4cnn(-c5ccccc5)c4)cnn3c(N)c2S(C)(=O)=O)CC1` [Compound 88, (1R,4R)-4-(7-amino-6-(methylsulfonyl)-3-(1-phenyl-1H-pyrazol-4-yl)pyrazolo[1,5-a]pyrimidin-5-yl)-N-hydroxy-1-(2-methoxyethoxy)cyclohexanecarboxamide], for which the IC50 (at human mTOR enzyme; in experiment [1]; in experiment [2]) was 1 to 100 nM each time.

`COCCO[C@]1(C(=O)NOC)CC[C@@H](c2nc3c(-c4cnn(-c5ccccc5)c4)cnn3c(N)c2S(C)(=O)=O)CC1` [Compound 89, (1R,4R)-4-(7-amino-6-(methylsulfonyl)-3-(1-phenyl-1H-pyrazol-4-yl)pyrazolo[1,5-a]pyrimidin-5-yl)-N-methoxy-1-(2-methoxyethoxy)-cyclohexane-carboxamide]: the IC50 (at human mTOR enzyme; in experiment [1]; in experiment [2]) was 1 to 100 nM each time.

Take `CNC(=O)[C@]1(OCCOC)CC[C@H](c2nc3c(-c4cnn(-c5ccccc5)c4)cnn3c(N)c2S(C)(=O)=O)CC1` [Compound 90, (1R,4R)-4-(7-amino-6-(methylsulfonyl)-3-(1-phenyl-1H-pyrazol-4-yl)pyrazolo[1,5-a]pyrimidin-5-yl)-1-(2-methoxyethoxy)-N-methylcyclohexane-carboxamide]: the half-inhibitory concentration (IC50) was 1 to 100 nM at human mTOR enzyme, 100 to 1000 nM in experiment [1] and 1000 to 2000 nM in experiment [2].

The term IC50 denotes the midpoint of a concentration-inhibition curve.
